This test relates to H3K9me3. The test can be described thus: Hypermethylation of histone H3 at lysine 9 (H3K9me3), MCF7. The class given is cell-based. As to conditions: Homo sapiens, 2 DT, n = 2, read-out: EC50 H3K9me3 levels. As for the experimental part: Relative IC50/EC50 values were determined by curve fitting to a four parameter logistic equation: Y = bottom + ((top-bottom)/ (1+exp(HillSlope*(X – LnIC50)), where X is the natural log of dose/concentration, Y is response, decreasing as X increases, top and bottom are plateaus in the same units as Y, lnIC50 is the natural log of potency, in the same log units as X, and HillSlope measures the steepness of the curve. Data were plotted using GraphPad Prism.
BioResearch) where indicated; the dates of acquisition and in an Acumen Explorer Ex3 (TTP Labtech), raw data testing are listed in parentheses: ZR-75-1; T-47D; MDA- were analyzed with Cellista software and then further MB-468; HCC70; BT-549; BT-20; MDA-MB-231; MDA- normalized in Excel against the values obtained for cells MB-175-VII, HCC-1937; MDA-MB-415. treated with 2 µM BEZ235, or vehicle (0.2% v/v DMSO); data were graphed using GraphPad Prism®. Images were SA-β-galactosidase immunocytochemical labeling taken by fluorescent microscopy using a Leica DMiL. […]
SA-β-gal Cell samples were lysed after treatment with expression was determined using the Senescence Cells 100 µL lysis buffer and transferred to a 96-well plate. […]
(BSA) (Invitrogen #15260-037) for 1 hour at 25°C. EdU Samples were analyzed by LC─MS/MS under the detection was performed using the Click-iT High Content conditions described below. […]

Usually EC50 stands for the midpoint of the concentration-response curve. Turning to `CCN1CCN(Cc2ccc(Nc3ncc(F)c(-c4cc(F)c5nc(C)n(C(C)C)c5c4)n3)nc2)CC1` [abemaciclib, Abemaciclib], the EC50 was found to be 340 ± 16 nM.

These data come from PMC5642494 (Oncotarget, 2017).
